Like-named read-outs stand apart in the source and are kept apart here.
Columns and labels:
[1] = target: T1, His tagged PTPN2 (TC45) protein (Homo sapiens, UniProt P17706); assay: Mobility shift assay (MSA) for potency of PTPN2 inhibitors; assay type: biochemical; conditions: read-out: PTPN2 MSA IC50
T1 construct: made in house
T1 sequence (P17706 with tags, fused parts or gaps isoform P17706-2): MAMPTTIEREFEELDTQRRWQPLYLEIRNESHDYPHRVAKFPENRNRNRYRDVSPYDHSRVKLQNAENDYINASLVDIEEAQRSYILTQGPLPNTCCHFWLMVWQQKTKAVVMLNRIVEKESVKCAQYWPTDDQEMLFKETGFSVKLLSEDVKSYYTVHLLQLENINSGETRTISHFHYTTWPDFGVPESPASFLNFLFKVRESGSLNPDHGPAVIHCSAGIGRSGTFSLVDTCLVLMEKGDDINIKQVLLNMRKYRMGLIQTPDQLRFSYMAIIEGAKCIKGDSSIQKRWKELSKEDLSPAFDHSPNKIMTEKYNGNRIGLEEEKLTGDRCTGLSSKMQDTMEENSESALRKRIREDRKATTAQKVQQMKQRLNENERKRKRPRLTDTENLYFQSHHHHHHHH
Experimental: Compound activity was determined using in house His tagged PTPN2 (TC45) protein (SEQ ID NO: 1) in an in vitro enzymatic reaction. The enzymatic assay used to determine activity was a mobility shift assay using a LabChip EZ Reader by Caliper Life Sciences. The enzymatic reaction was carried out in assay buffer (50 mM HEPES pH 7.5, 1 mM EGTA, 10 mM EDTA, 0.01% Tween® 20, and 2 mM DTT). The compounds were dispensed on a white 384 well ProxiPlate™ (PerkinElmer Catalog #6008289) plate using the Labcyte Echo at varying concentrations (12 point, 1:3 dilution). The enzyme (at 0.5 nM) was incubated with compound for 10 minutes at room temperature. Then the substrate (phosphorylated insulin receptor probe sequence: ((OG488)-(NH—CH2—CH2—O—CH2—CH2—O—CH2—CO)-T-R-D-I-(PY)-E-T-D-Y-Y-R-K-K-NH2) (SEQ ID NO: 2) was added at […] to the plates and incubated for another 10 minutes at room temperature. Finally, a quench solution (water and 4-bromo-3-(2-oxo-2-propoxyethoxy)-5-(3-{[1-(phenylmethanesulfonyl)piperidin-4-yl]amino}phenyl)thiophene-2-carboxylic acid) was added to the plates, which were then run on the EZ Reader (excitation 488 nm, emission 530 nm) to measure % conversion (the amount of phosphorylated substrate which was de-phosphorylated by PTPN2). […] The % inhibition was then used to calculate the IC50 values.

[2] = system: B16F10 mouse melanoma cells; assay: B16F10 IFNγ-induced cellular growth inhibition assay; assay type: cell-based; conditions: Mus musculus, B16-F10, 33 μM compound
Experimental: B16F10 mouse melanoma cells (ATCC Cat ^#CRL-6475, Manassas, Va.) were seeded at a density of 500 cells per well in a 384-well clear bottom plate (Corning Cat^# 3765, Corning, N.Y.) in 25 μL total volume of DMEM+10% FBS (Sigma Cat ^#D6429 and Sigma Cat ^#F4135, St. Louis, Mo.). Cells were allowed to adhere overnight at 37° C.+5% CO2. On the following day, 12.5 μL of mouse IFNγ (RD systems Cat485-MI/CF, Minneapolis, Minn.) was added to half of the plate (columns 13-24) at a concentration of 2 ng/mL for a final assay concentration of 0.5 ng/mL of IFNγ. Media only (12.5 μL of DMEM+10% FBS) was added to the remainder of the plate (columns 1-12). Next, compounds resuspended in DMSO (Sigma Cat ^#D2650) at 100 mM were diluted in semi-log dilutions in DMSO ranging from 100 mM to 0.001 mM and DMSO only controls were included. The compound/DMSO dilutions were further diluted 1:250 in DMEM+10% FBS, and 12.5 μL of these dilutions were added in triplicates to cells of both treatment arms (with and without IFNγ). Final compound concentrations ranged from 100 μM to 0.001 μM with a final DMSO concentration of 0.1%. Compounds were only dosed in the inner 240 wells, avoiding the outer 2-well perimeter of the plate to minimize edge effects. Finally, the plate was loaded into an IncuCyte® S3 Live Cell Analysis System (Essen Bioscience-Sartorius, Ann Arbor, Mich.) maintained in a 37° C.+5% CO2 incubator, allowed to equilibrate for 2 hours, and imaged every 6 hours for 5 days. Confluence over time for compound dilutions in the presence and absence of IFNγ was measured. Growth inhibition values were obtained when the “DMSO/no IFNγ” control reached confluence >95%. At these time points, the percent growth inhibition of each compound at the indicated concentration was calculated relative to the “DMSO/with IFNγ” control.

[3] = +0.5 ng/mL IFNγ, relative to DMSO control, read-out: % B16F10 growth inhibition (+0.5 ng/mL IFNγ) @ 33 μM
[4] = no IFNγ, read-out: % B16F10 growth inhibition (no IFNγ) @ 33 μM

Row | SMILES | IC50 [1] | inhibition at 33 µM [2, 3] | inhibition at 33 µM [2, 4]
1 | COc1ccc2cc(O)c(N3CC(=O)NS3(=O)=O)c(F)c2c1F [Compound 205, 5-(1,8-difluoro-3-hydroxy-7-methoxynaphthalen-2-yl)-1λ^6,2,5-thiadiazolidine-1,1,3-trione] | 10 to 100 nM | 25 to 59% | < 25%
2 | Cc1nn(C)cc1S(=O)(=O)N1CC=C(c2ccc3cc(O)c(N4CC(=O)NS4(=O)=O)c(F)c3c2)C1 [Compound 310, 5-{7-[1-(1,3-dimethyl-1H-pyrazole-4-sulfonyl)-2,5-dihydro-1H-pyrrol-3-yl]-1-fluoro-3-hydroxynaphthalen-2-yl}-1λ^6,2,5-thiadiazolidine-1,1,3-trione] | < 1 nM | > 90% | < 25%
3 | COc1ccc(-c2ccc3cc(O)c(N4CC(=O)NS4(=O)=O)c(F)c3c2)s1 [Compound 227, 5-[1-fluoro-3-hydroxy-7-(5-methoxythiophen-2-yl)naphthalen-2-yl]-1λ^6,2,5-thiadiazolidine-1,1,3-trione] | 1 to 10 nM | 60 to 90% | < 25%
4 | O=C1CN(c2c(O)cc3ccc(CC4CCN(CC(F)(F)F)CC4)cc3c2F)S(=O)(=O)N1 [Compound 252, 5-(1-fluoro-3-hydroxy-7-{[1-(2,2,2-trifluoroethyl)piperidin-4-yl]methyl}naphthalen-2-yl)-1λ^6,2,5-thiadiazolidine-1,1,3-trione] | 1 to 10 nM | 25 to 59% | < 25%
5 | O=C1CN(c2c(O)cc3ccc(C4=CCN(C(=O)C5CC5)C4)cc3c2F)S(=O)(=O)N1 [Compound 237, 5-{7-[1-(cyclopropanecarbonyl)-2,5-dihydro-1H-pyrrol-3-yl]-1-fluoro-3-hydroxynaphthalen-2-yl}-1λ^6,2,5-thiadiazolidine-1,1,3-trione] | 1 to 10 nM | > 90% | < 25%
6 | O=C1CN(c2c(O)cc3ccc(C4=CCOCC4)cc3c2F)S(=O)(=O)N1 [Compound 264, 5-[7-(3,6-dihydro-2H-pyran-4-yl)-1-fluoro-3-hydroxynaphthalen-2-yl]-1λ^6,2,5-thiadiazolidine-1,1,3-trione] | 1 to 10 nM | 60 to 90% | < 25%
7 | [2H]c1c(O)c(N2C([2H])([2H])C(=O)NS2(=O)=O)c(F)c2cc(OC)ccc12 [Compound 106, 5-[1-fluoro-3-hydroxy-7-methoxy(4-^2H)naphthalen-2-yl](4,4-^2H2)-1λ^6,2,5-thiadiazolidine-1,1,3-trione] | 1 to 10 nM | 60 to 90% | < 25%
8 | CS(=O)(=O)N1CCC(Nc2ccc3cc(O)c(N4CC(=O)NS4(=O)=O)c(F)c3c2)CC1 [Compound 305, 5-(1-fluoro-3-hydroxy-7-{[1-(methanesulfonyl)piperidin-4-yl]amino}naphthalen-2-yl)-1λ^6,2,5-thiadiazolidine-1,1,3-trione] | 10 to 100 nM | 60 to 90% | < 25%
9 | Nc1ccc(CS(=O)(=O)N2CC=C(c3ccc4cc(O)c(N5CC(=O)NS5(=O)=O)c(F)c4c3)C2)cc1 [Compound 184, 5-(7-{1-[(4-aminophenyl)methanesulfonyl]-2,5-dihydro-1H-pyrrol-3-yl}-1-fluoro-3-hydroxynaphthalen-2-yl)-1λ^6,2,5-thiadiazolidine-1,1,3-trione] | < 1 nM | 25 to 59% | < 25%
10 | COc1ccc2c(F)c(O)c(N3CC(=O)NS3(=O)=O)c(F)c2c1 [Compound 117, 5-(1,4-difluoro-3-hydroxy-7-methoxynaphthalen-2-yl)-1λ^6,2,5-thiadiazolidine-1,1,3-trione] | 1 to 10 nM | 25 to 59% | < 25%
11 | CC(C)CCOc1ccc2cc(O)c(N3CC(=O)NS3(=O)=O)c(F)c2c1 [Compound 204, 5-[1-fluoro-3-hydroxy-7-(3-methylbutoxy)naphthalen-2-yl]-1λ^6,2,5-thiadiazolidine-1,1,3-trione] | < 1 nM | 60 to 90% | < 25%
12 | COCCCOc1ccc2cc(O)c(N3CC(=O)NS3(=O)=O)c(F)c2c1 [Compound 247, 5-[1-fluoro-3-hydroxy-7-(3-methoxypropoxy)naphthalen-2-yl]-1λ^6,2,5-thiadiazolidine-1,1,3-trione] | 1 to 10 nM | 60 to 90% | < 25%
13 | O=C(COc1ccc2cc(O)c(N3CC(=O)NS3(=O)=O)c(F)c2c1)NCCC1CC1 [Compound 281, N-(2-cyclopropylethyl)-2-{[8-fluoro-6-hydroxy-7-(1,1,4-trioxo-1λ^6,2,5-thiadiazolidin-2-yl)naphthalen-2-yl]oxy}acetamide] | 1 to 10 nM | 25 to 59% | < 25%
14 | O=C1CN(c2c(O)cc3ccc(OCCOCC4CC4)cc3c2F)S(=O)(=O)N1 [Compound 212, 5-{7-[2-(cyclopropylmethoxy)ethoxy]-1-fluoro-3-hydroxynaphthalen-2-yl}-1λ^6,2,5-thiadiazolidine-1,1,3-trione] | 1 to 10 nM | 60 to 90% | < 25%
15 | O=C1CN(c2c(O)cc3ccc(CNCC4CC4)cc3c2F)S(=O)(=O)N1 [Compound 161, 5-(7-{[(cyclopropylmethyl)amino]methyl}-1-fluoro-3-hydroxynaphthalen-2-yl)-1λ^6,2,5-thiadiazolidine-1,1,3-trione] | 10 to 100 nM |  | 
16 | O=C1CN(c2c(O)cc3ccc(C4CC4)cc3c2F)S(=O)(=O)N1 [Compound 236, 5-(7-cyclopropyl-1-fluoro-3-hydroxynaphthalen-2-yl)-1λ^6,2,5-thiadiazolidine-1,1,3-trione] | 1 to 10 nM |  | 
17 | CCCCS(=O)(=O)N1CC=C(c2ccc3cc(O)c(N4CC(=O)NS4(=O)=O)c(F)c3c2)C1 [Compound 291, 5-{7-[1-(butane-1-sulfonyl)-2,5-dihydro-1H-pyrrol-3-yl]-1-fluoro-3-hydroxynaphthalen-2-yl}-1λ^6,2,5-thiadiazolidine-1,1,3-trione] | < 1 nM |  | 
18 | Nc1cccc(CS(=O)(=O)N2CC=C(c3ccc4cc(O)c(N5CC(=O)NS5(=O)=O)c(F)c4c3)C2)c1 [Compound 194, 5-(7-{1-[(3-aminophenyl)methanesulfonyl]-2,5-dihydro-1H-pyrrol-3-yl}-1-fluoro-3-hydroxynaphthalen-2-yl)-1λ^6,2,5-thiadiazolidine-1,1,3-trione] | < 1 nM |  | 
19 | O=C1CN(c2c(O)cc3ccc(OCCNC4CC4)cc3c2F)S(=O)(=O)N1 [Compound 142, 5-{7-[2-(cyclopropylamino)ethoxy]-1-fluoro-3-hydroxynaphthalen-2-yl}-1λ^6,2,5-thiadiazolidine-1,1,3-trione] | 1 to 10 nM |  | 
20 | COc1ccc2cc(O)c(N3CC(=O)NS3(=O)=O)c(F)c2c1Cl [Compound 234, 5-(8-chloro-1-fluoro-3-hydroxy-7-methoxynaphthalen-2-yl)-1λ^6,2,5-thiadiazolidine-1,1,3-trione] | 10 to 100 nM |  | 

— patent US20210009542A1 (Calico Life Sciences LLC, priority 2018, published 2021)
